Assay [1] deals with T1, Adrenergic receptor alpha-2 (Rattus norvegicus, UniProt P22086+P19328+P22909).
T1 sequence (P22086 whole entry): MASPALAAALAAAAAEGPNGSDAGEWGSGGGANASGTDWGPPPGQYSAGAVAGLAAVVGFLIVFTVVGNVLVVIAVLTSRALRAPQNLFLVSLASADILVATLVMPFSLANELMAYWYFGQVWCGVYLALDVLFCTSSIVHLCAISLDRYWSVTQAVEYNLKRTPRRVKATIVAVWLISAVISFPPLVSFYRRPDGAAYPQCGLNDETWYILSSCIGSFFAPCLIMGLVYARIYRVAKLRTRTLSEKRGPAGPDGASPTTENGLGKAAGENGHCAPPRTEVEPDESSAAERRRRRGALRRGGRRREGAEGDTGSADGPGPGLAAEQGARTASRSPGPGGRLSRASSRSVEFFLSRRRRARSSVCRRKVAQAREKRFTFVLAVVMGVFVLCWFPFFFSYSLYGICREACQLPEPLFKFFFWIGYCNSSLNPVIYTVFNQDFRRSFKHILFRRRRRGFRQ
T1 sequence (P19328 whole entry): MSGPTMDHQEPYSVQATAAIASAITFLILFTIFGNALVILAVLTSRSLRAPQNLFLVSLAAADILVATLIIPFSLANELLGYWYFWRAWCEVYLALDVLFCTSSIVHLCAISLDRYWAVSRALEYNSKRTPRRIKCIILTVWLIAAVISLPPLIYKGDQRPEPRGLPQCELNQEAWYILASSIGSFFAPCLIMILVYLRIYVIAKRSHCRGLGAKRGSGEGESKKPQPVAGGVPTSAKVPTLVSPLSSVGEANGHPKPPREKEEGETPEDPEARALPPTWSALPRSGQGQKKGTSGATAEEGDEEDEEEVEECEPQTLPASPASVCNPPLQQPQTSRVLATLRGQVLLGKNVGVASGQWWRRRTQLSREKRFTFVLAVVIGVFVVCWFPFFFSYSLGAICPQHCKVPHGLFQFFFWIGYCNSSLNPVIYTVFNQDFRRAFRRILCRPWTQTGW
T1 sequence (P22909 whole entry): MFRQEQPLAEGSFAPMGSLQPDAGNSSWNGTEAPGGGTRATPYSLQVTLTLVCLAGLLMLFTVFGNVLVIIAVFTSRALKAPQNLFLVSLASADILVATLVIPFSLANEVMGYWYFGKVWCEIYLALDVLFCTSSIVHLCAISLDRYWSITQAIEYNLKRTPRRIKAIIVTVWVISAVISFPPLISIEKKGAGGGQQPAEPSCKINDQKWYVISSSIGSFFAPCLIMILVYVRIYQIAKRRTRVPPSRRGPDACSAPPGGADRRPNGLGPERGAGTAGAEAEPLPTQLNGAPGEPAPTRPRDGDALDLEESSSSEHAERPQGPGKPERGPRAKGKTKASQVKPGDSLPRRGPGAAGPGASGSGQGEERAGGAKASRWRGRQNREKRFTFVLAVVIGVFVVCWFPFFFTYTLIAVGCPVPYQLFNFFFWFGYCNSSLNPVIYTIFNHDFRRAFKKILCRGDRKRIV
As to the kind of experiment: Binding affinity to alpha-2 adrenergic receptor by displacement of [3H]clonidine. Type of assay: protein assay. A general note: Displacement assays read how much labelled ligand stays bound in the presence of the test substance.

Assay [2] deals with Rattus norvegicus. As to the kind of experiment: Percent reduction of SHR (Spontaneous Hypertensive Rat) blood pressure at 4.5 hr at a dose 10 mg/kg peroral administration. Type of assay: functional. Conditions: route oral.
Assay [3] has as its target T2, Adrenergic receptor alpha-1 (Rattus norvegicus, UniProt P15823+P23944+P43140).
T2 sequence (P15823 whole entry): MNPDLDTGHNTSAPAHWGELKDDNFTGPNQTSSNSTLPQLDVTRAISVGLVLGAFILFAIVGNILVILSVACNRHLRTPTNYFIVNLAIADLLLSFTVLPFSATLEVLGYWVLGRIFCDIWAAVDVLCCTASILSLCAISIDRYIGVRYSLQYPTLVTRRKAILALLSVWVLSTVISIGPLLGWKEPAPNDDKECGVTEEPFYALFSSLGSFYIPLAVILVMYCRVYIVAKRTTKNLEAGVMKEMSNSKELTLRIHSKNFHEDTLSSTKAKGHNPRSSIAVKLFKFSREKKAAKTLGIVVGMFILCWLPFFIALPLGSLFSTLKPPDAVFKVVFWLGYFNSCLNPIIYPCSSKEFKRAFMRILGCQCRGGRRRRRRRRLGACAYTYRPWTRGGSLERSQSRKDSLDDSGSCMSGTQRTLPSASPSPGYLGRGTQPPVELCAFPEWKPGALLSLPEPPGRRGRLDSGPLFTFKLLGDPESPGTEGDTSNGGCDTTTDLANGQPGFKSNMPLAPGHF
T2 sequence (P23944 whole entry): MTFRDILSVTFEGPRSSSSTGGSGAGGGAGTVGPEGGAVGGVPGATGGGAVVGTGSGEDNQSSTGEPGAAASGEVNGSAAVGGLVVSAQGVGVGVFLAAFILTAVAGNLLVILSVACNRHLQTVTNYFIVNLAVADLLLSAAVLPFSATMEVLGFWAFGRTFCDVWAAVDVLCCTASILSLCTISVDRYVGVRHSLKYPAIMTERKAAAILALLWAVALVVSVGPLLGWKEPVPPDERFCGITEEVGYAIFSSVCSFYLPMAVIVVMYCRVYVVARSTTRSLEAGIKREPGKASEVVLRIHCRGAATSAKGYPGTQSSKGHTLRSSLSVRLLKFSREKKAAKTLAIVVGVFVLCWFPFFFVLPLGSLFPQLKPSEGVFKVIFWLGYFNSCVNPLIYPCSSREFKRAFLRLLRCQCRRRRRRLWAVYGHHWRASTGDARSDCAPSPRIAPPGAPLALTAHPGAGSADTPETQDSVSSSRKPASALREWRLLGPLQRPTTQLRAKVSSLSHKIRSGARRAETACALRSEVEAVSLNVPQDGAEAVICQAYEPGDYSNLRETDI
T2 sequence (P43140 whole entry): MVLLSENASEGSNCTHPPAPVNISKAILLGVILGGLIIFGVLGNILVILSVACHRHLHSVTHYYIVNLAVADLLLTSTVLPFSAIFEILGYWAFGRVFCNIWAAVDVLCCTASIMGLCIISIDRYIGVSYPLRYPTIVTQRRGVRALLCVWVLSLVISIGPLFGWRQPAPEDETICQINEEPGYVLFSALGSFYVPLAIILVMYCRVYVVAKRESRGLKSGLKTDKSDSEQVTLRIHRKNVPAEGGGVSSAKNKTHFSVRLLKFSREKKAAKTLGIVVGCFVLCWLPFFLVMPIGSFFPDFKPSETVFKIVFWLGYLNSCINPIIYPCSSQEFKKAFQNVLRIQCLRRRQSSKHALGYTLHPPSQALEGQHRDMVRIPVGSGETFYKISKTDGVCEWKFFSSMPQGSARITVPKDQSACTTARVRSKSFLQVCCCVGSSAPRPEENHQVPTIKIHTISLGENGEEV
As to the kind of experiment: Binding affinity to Alpha-1 adrenergic receptor by displacement of [3H]prazosin. Type of assay: protein assay.

Assay [4] has as its system Rattus norvegicus. The assay is described as follows: Percent reduction of SHR (Spontaneous Hypertensive Rat) blood pressure at 1 hr at a dose 10 mg/kg peroral administration. In kind it is functional. Conditions: route oral.
The subject of assay [5] is Rattus norvegicus. The assay is described as follows: Percent reduction of SHR (Spontaneous Hypertensive Rat) blood pressure at 4.5 hr at a dose 3 mg/kg peroral administration. Type of assay: functional. The settings on record: route oral.
Assay [6] relates to Rattus norvegicus. The assay is described as follows: Percent reduction of SHR (Spontaneous Hypertensive Rat) blood pressure at 1 hr at a dose 3 mg/kg peroral administration. Conditions: route oral. In kind it is functional.
Assay [7] in a line: Ionization constant of the compound.
For assay [8], the system named is Rattus norvegicus. As to the kind of experiment: Percent reduction of SHR (Spontaneous Hypertensive Rat) blood pressure at 1 hr at a dose 3 mg/kg peroral administration. Conditions: route oral.
The test system of assay [9] is Rattus norvegicus. The assay is described as follows: Percent reduction of SHR (Spontaneous Hypertensive Rat) blood pressure at 4.5 hr at a dose 3 mg/kg peroral administration. The settings on record: route oral.

The source of these data is ChEMBL document CHEMBL1124269, “1,3-Diamino-6,7-dimethoxyisoquinoline derivatives as potential alpha 1-adrenoceptor antagonists” (J Med Chem, 1988).

In general, Ki refers to the equilibrium dissociation constant of an inhibitor or competing ligand from its target.

Molecules are shown by their SMILES.

For the compound `COc1cc2cc(N3CCCCC3)nc(N)c2cc1OC`, the Ki in assay [1] and in assay [3] was >> 1 uM in each case. The Reduction in the assay with Rattus norvegicus [2] is given as 11%; in the assay on Rattus norvegicus [4] it was 15%.
`COc1cc2nc(N3CCN(C(=O)c4ccco4)CC3)nc(N)c2cc1OC` [PRAZOSIN]: the Reduction in the assay on Rattus norvegicus [5] stood at 15%; in the assay with Rattus norvegicus [6] it was 24%. The compound further came in with a pKa in assay [7] of 6.8.
Regarding `COc1cc2nc(N(C)C)cc(N)c2cc1OC`, the figures for the Ki in assay [1] and in assay [3] (read-out: Ki) were greater than 1000 nM and 11.4 nM, respectively. In addition, the Reduction in the assay on Rattus norvegicus [8] is given as 12%; with Rattus norvegicus [9], 11%. This compound also yielded a pKa in assay [7] of 9.3.
For the compound `COc1cc2cc(N(C)C)nc(N)c2cc1OC`, the Ki in [1] and in assay [3] was >> 1 uM throughout. The Reduction worked out at 10% with Rattus norvegicus [2] and 12% with Rattus norvegicus [4]. In [7], this compound displayed a pKa of 7.1.
`COc1cc2cc(N3CCN(C(=O)c4ccco4)CC3)nc(N)c2cc1OC`: the Reduction amounted to 6% in the assay with Rattus norvegicus [2] and 4% in the assay with Rattus norvegicus [4]. Besides, the Ki in [3] (read-out: Ki) turned out to be 160 nM.
Regarding `COc1cc2nc(N(C)C)nc(N)c2cc1OC`, the Ki is greater than 1000 nM in assay [1] and 4.1 nM in assay [3] (read-out: Ki). The pKa in assay [7] worked out at 8.1.
